According to patent US20240316047A1, “INHIBITORS OF RNA HELICASE DHX9 AND USES THEREOF” (ACCENT THERAPEUTICS, INC., priority 2022, published 2024):

Molecular target: Human recombinant DHX9 protein (Homo sapiens (Human), UniProt Q08211)
Test: DHX9 ATPase assay (ADP-Glo)
Type: biochemical
Conditions: for IC50: read-out: DHX9 Biochemical Inflection Point

Sequence of Human recombinant DHX9 protein (Q08211 whole entry): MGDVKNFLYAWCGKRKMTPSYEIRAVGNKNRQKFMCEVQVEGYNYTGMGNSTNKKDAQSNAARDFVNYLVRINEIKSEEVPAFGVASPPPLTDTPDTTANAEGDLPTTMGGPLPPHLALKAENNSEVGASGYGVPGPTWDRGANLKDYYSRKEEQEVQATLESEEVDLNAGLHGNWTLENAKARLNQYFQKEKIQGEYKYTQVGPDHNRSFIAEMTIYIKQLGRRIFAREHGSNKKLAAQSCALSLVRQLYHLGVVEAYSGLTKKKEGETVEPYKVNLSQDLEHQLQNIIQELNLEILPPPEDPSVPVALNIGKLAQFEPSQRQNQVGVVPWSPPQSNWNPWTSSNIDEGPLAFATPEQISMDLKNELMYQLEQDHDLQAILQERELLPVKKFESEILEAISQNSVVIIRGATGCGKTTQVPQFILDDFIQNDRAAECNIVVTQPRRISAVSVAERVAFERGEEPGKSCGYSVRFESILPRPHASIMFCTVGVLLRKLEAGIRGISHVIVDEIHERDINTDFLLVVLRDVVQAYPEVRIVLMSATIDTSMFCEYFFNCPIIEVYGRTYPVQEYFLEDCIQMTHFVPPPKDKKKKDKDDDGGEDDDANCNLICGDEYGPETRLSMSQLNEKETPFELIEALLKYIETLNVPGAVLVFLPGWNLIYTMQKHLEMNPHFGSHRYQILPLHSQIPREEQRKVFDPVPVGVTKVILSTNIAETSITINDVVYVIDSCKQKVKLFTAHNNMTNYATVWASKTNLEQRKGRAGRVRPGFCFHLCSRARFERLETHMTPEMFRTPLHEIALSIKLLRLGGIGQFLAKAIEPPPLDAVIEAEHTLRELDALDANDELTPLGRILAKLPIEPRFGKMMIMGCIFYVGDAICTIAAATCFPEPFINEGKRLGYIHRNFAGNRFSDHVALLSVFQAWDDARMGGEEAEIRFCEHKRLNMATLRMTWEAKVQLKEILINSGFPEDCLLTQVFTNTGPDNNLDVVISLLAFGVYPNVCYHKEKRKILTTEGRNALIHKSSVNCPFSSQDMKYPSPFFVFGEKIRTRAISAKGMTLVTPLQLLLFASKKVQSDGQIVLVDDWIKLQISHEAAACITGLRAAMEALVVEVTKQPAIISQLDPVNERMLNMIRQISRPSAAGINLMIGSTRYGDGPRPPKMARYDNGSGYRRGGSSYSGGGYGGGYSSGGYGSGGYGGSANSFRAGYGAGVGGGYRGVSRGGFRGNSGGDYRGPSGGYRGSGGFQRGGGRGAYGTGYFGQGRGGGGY

SMILES | DHX9 Biochemical Max Inhibition | IC50
CS(=O)(=O)Nc1cc(Cl)cc(NC(=O)c2cc(-c3ncccc3OCc3cnco3)cs2)c1 [Example 215] | 75.4% | 0.004 µM
Cn1cc(C(=O)Nc2cc(Cl)cc(NS(C)(=O)=O)c2)cc1-c1ncccc1OCc1nccs1 [Example 279] | 73.2% | 0.004 µM
Cc1sc(C(=O)Nc2cc(Cl)cc(NS(C)(=O)=O)c2)cc1-c1ncc(N2CCC3(CC2)CC3)cc1F [Example 467] | 99.3 | 0.155 µM
Cc1ncc(OCc2cc(F)cc(F)c2)c(-c2cc(C(=O)Nc3cc(Cl)cc(NS(C)(=O)=O)c3)cn2C)n1 [Example 734] | 71.2 | 0.0066 µM
Cc1sc(C(=O)Nc2cc(Cl)cc(NS(C)(=O)=O)c2)cc1-c1ncc(OC2CN(C)C2)cc1F [Example 635] | 68.5 | 0.002 µM
Cc1cc(C(=O)Nc2cc(Cl)cc(NS(=O)(=O)C(F)F)c2)cn1-c1ccc(N2CCOCC2)cn1 [Example 248] | 70.8% | 0.185 µM
Cc1sc(C(=O)Nc2cc(Cl)cc(NS(C)(=O)=O)c2)cc1N1C(=O)N(C)C(C)(c2ccccn2)C1=O (stereo not drawn) [Example 660] | 67.1 | 2.12 µM
CS(=O)(=O)Nc1cc(Br)cc(NC(=O)C2CCC2c2ccccc2)c1 (stereo not drawn) [Example 12] | 58.6% | 84.7 µM
CS(=O)(=O)Nc1cc(Cl)cc(NC(=O)c2cccc(-c3ccnc(Cl)c3)c2)c1 [Example 102, N-(3-chloro-5-(methylsulfonamido)phenyl)-3-(2-chloropyridin-4-yl)benzamide] | 61.8% | 0.762 µM
Cn1cc(C(=O)Nc2cc(Cl)cc(NS(C)(=O)=O)c2)cc1-c1ncc(N2CCC3(CC2)CC3(F)F)cc1F [Example 518] | 56.7 | 0.153 µM
CS(=O)(=O)Nc1cc(Cl)cc(NC(=O)c2cnn(-c3ccccc3Oc3cccc(F)c3)c2)c1 [Example 265] | 51.8% | 8.05 µM
CS(=O)(=O)Nc1cc(Cl)cc(NC(=O)c2cnn(-c3ncccc3OCc3cn[nH]c3)c2)c1 [Example 206] | 74.9% | 0.0168 µM
CS(=O)(=O)Nc1cc(Cl)cc(NC(=O)c2cnn(-c3cc(N4CCOCC4)ccn3)c2)c1 [Example 91] | 59.7% | 0.0279 µM
CN1CC[C@@H](Oc2cnc(-c3cc(C(=O)Nc4cc(Cl)cc(NS(C)(=O)=O)c4)cn3CC(F)(F)F)nc2)C1 [Example 641] | 71 | 0.009 µM
CS(=O)(=O)Nc1cc(Br)cc(NC(=O)c2cnn(-c3ccccc3CO)c2)c1 [Example 161, N-(3-bromo-5-(methylsulfonamido)phenyl)-1-(2-(hydroxymethyl)phenyl)-1H-pyrazole-4-carboxamide] | 44.9% | 0.0484 µM
Cn1cc(C(=O)Nc2cc(Cl)cc(NS(C)(=O)=O)c2)cc1-c1ccc(N2CCN(C(=O)C(C)(C)C)CC2)cn1 [Example 591] | 65.9 | 0.0183 µM
CC(C)(C)OC(=O)N1CC2(CC(n3cc(C(=O)Nc4cc(Cl)cc(NS(C)(=O)=O)c4)cn3)C2)C1 [Example 144, tert-butyl 6-(4-((3-chloro-5-(methylsulfonamido)phenyl)carbamoyl)-1H-pyrazol-1-yl)-2-azaspiro[3.3]heptane-2-carboxylate] | 65.1% | 0.224 µM
CN1CCN(C(=O)c2cc(C(=O)Nc3cc(Cl)cc(NS(C)(=O)=O)c3)cn2-c2ccccn2)CC1 [Example 665] | 70.1 | 0.0309 µM
Cc1sc(C(=O)Nc2cc(Cl)cc(NS(C)(=O)=O)c2)cc1-c1ncc(OC(C)CO)cn1 (stereo not drawn) [Example 677] | 75.1 | 0.0068 µM

SMILES | DHX9 Biochemical Max Inhibition | IC50
COc1cc(N2CC(F)(F)C2)cnc1-c1cc(C(=O)Nc2cc(Cl)cc(NS(C)(=O)=O)c2)cn1C [Example 462] | 82.4 | 0.0091 µM
CN(C)C(=O)Cc1cccnc1-c1csc(C(=O)Nc2cc(Cl)cc(NS(C)(=O)=O)c2)c1 [Example 221] | 78.3% | 0.0066 µM
Cc1sc(C(=O)Nc2cc(Cl)cc(NS(C)(=O)=O)c2)cc1-c1cn(-c2ccccc2)nn1 [Example 236] | 68.9% | 0.0521 µM
CS(=O)(=O)Nc1cc(Cl)cc(NC(=O)c2cnn(-c3ncccc3OCc3c[nH]cn3)c2)c1 [Example 254] | 64.1% | 0.0595 µM
Cn1cc(C(=O)Nc2cc(Cl)cc(NS(C)(=O)=O)c2)cc1-c1ncc(F)cc1-c1cncc(F)c1 [Example 604, N-(3-chloro-5-methanesulfonamidophenyl)-5-{5,5′-difluoro-[3,3′-bipyridin]-2-yl}-1-methylpyrrole-3-carboxamide] | 69.1 | 0.037 µM
Cn1cc(C(=O)Nc2cc(Cl)cc(NS(C)(=O)=O)c2)cc1N1CCCCC1=O [Example 158, N-(3-chloro-5-(methylsulfonamido)phenyl)-1-methyl-5-(2-oxopiperidin-1-yl)-1H-pyrrole-3-carboxamide] | 76.5% | 0.0345 µM
CS(=O)(=O)Nc1cc(F)cc(NC(=O)c2cc(-c3ncccc3OCc3ccccc3)cs2)c1 [Example 214] | 75.9% | 0.088 µM
CS(=O)(=O)Nc1cc(Br)cc(NC(=O)c2cnn(-c3ccccc3OCc3ccccc3)c2)c1 [Example 51] | 61.1% | 0.145 µM
CS(=O)(=O)Nc1cc(Cl)cc(NC(=O)c2cc(-c3ncccc3CC(=O)N3CCCC3)cs2)c1 [Example 383] | 78.3% | 0.0101 µM
CS(=O)(=O)Nc1cc(Cl)cc(NC(=O)c2cc(C(F)(F)F)n(-c3ccc(N4CCOCC4)cn3)c2)c1 [Example 271] | 66.1% | 0.0865 µM
CS(=O)(=O)Nc1cc(Cl)cc(NC(=O)c2c[nH]c(-c3ccccc3)n2)c1 [Example 6] | 52.5% | 0.0917 µM
CS(=O)(=O)Nc1cc(Cl)cc(NC(=O)c2cc3c(F)cccc3s2)c1 [Example 296] | 69.9% | 0.125 µM
CC(C)(C)OC(=O)NC1CC2(C1)CC(n1cc(C(=O)Nc3cc(Cl)cc(NS(C)(=O)=O)c3)cn1)C2 (stereo not drawn) [Example 318] | 64.4% | 
CS(=O)(=O)Nc1cc(Cl)cc(NC(=O)c2cnn(-c3ccc(N4CC5CCC(C4)O5)cn3)c2)c1 [Example 191] | 67.6% | 0.0042 µM
Cc1sc(C(=O)Nc2cc(Cl)cc(NS(=O)(=O)CCO)c2)cc1-c1ncc(OC(C)C)cn1 [Example 582] | 49.9 | 0.287 µM
Cn1cc(C(=O)Nc2cc(Cl)cc(NS(C)(=O)=O)c2)cc1-c1ncc(N2CCC3(CC2)COC3)cc1F [Example 475] | 64.7 | 0.0136 µM
CS(=O)(=O)Nc1cc(Cl)cc(NC(=O)c2cnn(-c3ccc(N4CCCC4=O)cn3)c2)c1 [Example 90] | 61.5% | 0.024 µM
CS(=O)(=O)Nc1cc(Cl)cc(NC(=O)c2cnn(-c3ccc(N4CC5(COC5)C4)cc3OCc3cccc(F)c3)c2)c1 [Example 722] | 74.4 | 0.0191 µM

Second part, the molecule after the results:

DHX9 Biochemical Max Inhibition | IC50 | SMILES
53.6 | 0.0444 µM | COc1ccc(F)c(-c2cc(C(=O)Nc3cc(Cl)cc(NS(C)(=O)=O)c3)cn2C)n1 [Example 703]
71.8 | 0.0147 µM | Cc1cc(C(=O)Nc2cc(Cl)cc(NS(C)(=O)=O)c2)cn1-c1ncc([S+](C)[O-])cn1 (stereo not drawn) [Example 657]
71.3 | 0.0211 µM | Cn1cc(C(=O)Nc2cc(Cl)cc(NS(C)(=O)=O)c2)cc1-c1ncc(C(F)(F)F)cn1 [Example 571]
82.6% | 0.0191 µM | CC(O)c1cc(C(=O)Nc2cc(Cl)cc(NS(C)(=O)=O)c2)cn1-c1ccccn1 (stereo not drawn) [Example 287]
60.9 | 0.1 µM | CS(=O)(=O)Nc1cc(Cl)cc(NC(=O)c2cc(Cl)n(-c3ncc(F)cn3)c2)c1 [Example 709]
70.6% | 0.0054 µM | Cc1cc(C(=O)Nc2cc(Cl)cc(NS(C)(=O)=O)c2)cn1-c1ccc(N2CCS(=O)(=O)CC2)cn1 [Example 285]
57.7% | 0.0846 µM | CN(C)S(=O)(=O)c1ccc(-n2cc(C(=O)Nc3cc(Cl)cc(NS(C)(=O)=O)c3)cn2)nc1 [Example 200]
65.1 | 0.0978 µM | Cc1cc(C(=O)Nc2cc(Cl)cc(NS(C)(=O)=O)c2)cn1-c1ncc(N2CC(F)(F)C2)cc1OC(C)C [Example 672]
65.7 | 0.0297 µM | Cc1cc(C(=O)Nc2cc(Cl)cc(NS(C)(=O)=O)c2)cn1-c1ncc(N2CCC(F)(F)C2)cn1 [Example 409]
73.6 | 0.0131 µM | Cn1cc(C(=O)Nc2cc(Cl)cc(NS(C)(=O)=O)c2)cc1-c1ncc(F)cc1C#N [Example 546]
91.7% | 0.0856 µM | Cc1sc(C(=O)Nc2cc(Cl)cc(NS(C)(=O)=O)c2)cc1-c1ncc(C(F)(F)F)cn1 [Example 357]
80.2 | 0.0203 µM | Cn1cc(C(=O)Nc2cc(Cl)cc(NS(C)(=O)=O)c2)cc1-c1ncc(OC(F)F)cn1 [Example 553]
79% | 0.0107 µM | CCOc1cnc(-c2cc(C(=O)Nc3cc(Cl)cc(NS(C)(=O)=O)c3)sc2C)nc1 [Example 335]
73.7 | 0.0248 µM | CS(=O)(=O)Nc1cc(Cl)cc(NC(=O)c2cnn(-c3ncc(N4CCOCC4)cn3)c2)c1 [Example 394]
69.7 | 0.0159 µM | CCOc1cc(F)cnc1-c1cc(C(=O)Nc2cc(Cl)cc(NS(C)(=O)=O)c2)cn1C [Example 561]
65.4% | 0.0418 µM | CC(C)(C)Oc1cnc(-c2csc(C(=O)Nc3cc(Cl)cc(NS(C)(=O)=O)c3)c2)nc1 [Example 379]
